Reference: PubChem BioAssay (NCI)
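Cells were grown in 96-well plates and exposed to each compound for 48 hours at five concentrations; endpoints were interpolated linearly between bracketing concentrations, or set to the highest concentration if not reached. TGI is the concentration that stops growth completely.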

What was measured:
Test in all cases: NCI anticancer screen, dose series, 48 h
786-0 renal = tested on: 786-0 renal
A549 NSCLC = tested on: A549 NSCLC
ACHN renal = tested on: ACHN renal
BT-549 breast = tested on: BT-549 breast
CAKI-1 renal = tested on: CAKI-1 renal
CCRF-CEM leukemia = tested on: CCRF-CEM leukemia
COLO 205 colon = tested on: COLO 205 colon
DU-145 prostate = tested on: DU-145 prostate
EKVX NSCLC = tested on: EKVX NSCLC
HCT-116 colon = tested on: HCT-116 colon
HCT-15 colon = tested on: HCT-15 colon
HL-60(TB) leukemia = tested on: HL-60(TB) leukemia
HOP-62 NSCLC = tested on: HOP-62 NSCLC
HS 578T breast = tested on: HS 578T breast
HT29 colon = tested on: HT29 colon
KM12 colon = tested on: KM12 colon
LOX IMVI melanoma = tested on: LOX IMVI melanoma
M14 melanoma = tested on: M14 melanoma
MALME-3M melanoma = tested on: MALME-3M melanoma
MCF7 breast = tested on: MCF7 breast
MDA-MB-435 = tested on: MDA-MB-435
MDA-N = tested on: MDA-N
MOLT-4 leukemia = tested on: MOLT-4 leukemia
NCI-H226 lung = tested on: NCI-H226 lung
NCI-H23 lung = tested on: NCI-H23 lung
NCI-H522 lung = tested on: NCI-H522 lung
NCI/ADR-RES ovarian = tested on: NCI/ADR-RES ovarian
OVCAR-3 ovarian = tested on: OVCAR-3 ovarian
OVCAR-4 ovarian = tested on: OVCAR-4 ovarian
OVCAR-5 ovarian = tested on: OVCAR-5 ovarian
OVCAR-8 ovarian = tested on: OVCAR-8 ovarian
PC-3 prostate = tested on: PC-3 prostate
RPMI-8226 leukemia = tested on: RPMI-8226 leukemia
RXF 393 renal = tested on: RXF 393 renal
SF-268 CNS = tested on: SF-268 CNS
SF-295 CNS = tested on: SF-295 CNS
SK-MEL-2 melanoma = tested on: SK-MEL-2 melanoma
SK-MEL-28 melanoma = tested on: SK-MEL-28 melanoma
SK-MEL-5 melanoma = tested on: SK-MEL-5 melanoma
SK-OV-3 ovarian = tested on: SK-OV-3 ovarian
SN12C renal = tested on: SN12C renal
SNB-19 CNS = tested on: SNB-19 CNS
SNB-75 CNS = tested on: SNB-75 CNS
SR leukemia = tested on: SR leukemia
SW-620 colon = tested on: SW-620 colon
T-47D breast = tested on: T-47D breast
TK-10 renal = tested on: TK-10 renal
U251 CNS = tested on: U251 CNS
UACC-257 melanoma = tested on: UACC-257 melanoma
UACC-62 melanoma = tested on: UACC-62 melanoma
UO-31 renal = tested on: UO-31 renal
HCC-2998 colon = tested on: HCC-2998 colon
IGROV1 ovarian = tested on: IGROV1 ovarian
K-562 leukemia = tested on: K-562 leukemia
MDA-MB-231 breast = tested on: MDA-MB-231 breast
NCI-H460 lung = tested on: NCI-H460 lung
SF-539 CNS = tested on: SF-539 CNS

`O=S1(=O)OCCCOS(=O)(=O)C1(Br)Br` gave a TGI (786-0 renal) of over 100 µM, a TGI (A549 NSCLC) of over 100 µM and a TGI (ACHN renal) of over 100 µM. For the same compound, the TGI (BT-549 breast) was over 100 µM, the TGI (CAKI-1 renal) was over 100 µM and the TGI (CCRF-CEM leukemia) was over 100 µM. For the same compound, the TGI (COLO 205 colon) was over 100 µM, the TGI (DU-145 prostate) was over 100 µM and the TGI (EKVX NSCLC) was over 100 µM. It also gave a TGI (HCT-116 colon) of over 100 µM, a TGI (HCT-15 colon) of over 100 µM and a TGI (HL-60(TB) leukemia) of over 100 µM. It also gave a TGI (HOP-62 NSCLC) of over 100 µM, a TGI (HS 578T breast) of over 100 µM and a TGI (HT29 colon) of over 100 µM. It also gave a TGI (KM12 colon) of over 100 µM, a TGI (LOX IMVI melanoma) of over 100 µM and a TGI (M14 melanoma) of over 100 µM. The TGI (MALME-3M melanoma) was over 100 µM, the TGI (MCF7 breast) was over 100 µM and the TGI (MDA-MB-435) was over 100 µM. For the same compound, the TGI (MDA-N) was over 100 µM, the TGI (MOLT-4 leukemia) was over 100 µM and the TGI (NCI-H226 lung) was over 100 µM. It also gave a TGI (NCI-H23 lung) of over 100 µM, a TGI (NCI-H522 lung) of over 100 µM and a TGI (NCI/ADR-RES ovarian) of over 100 µM. It also gave a TGI (OVCAR-3 ovarian) of over 100 µM, a TGI (OVCAR-4 ovarian) of over 100 µM and a TGI (OVCAR-5 ovarian) of over 100 µM. It also gave a TGI (OVCAR-8 ovarian) of over 100 µM, a TGI (PC-3 prostate) of over 100 µM and a TGI (RPMI-8226 leukemia) of over 100 µM. The TGI (RXF 393 renal) was over 100 µM, the TGI (SF-268 CNS) was over 100 µM and the TGI (SF-295 CNS) was over 100 µM. It also gave a TGI (SK-MEL-2 melanoma) of over 100 µM, a TGI (SK-MEL-28 melanoma) of over 100 µM and a TGI (SK-MEL-5 melanoma) of over 100 µM. For the same compound, the TGI (SK-OV-3 ovarian) was over 100 µM, the TGI (SN12C renal) was over 100 µM and the TGI (SNB-19 CNS) was over 100 µM. It also gave a TGI (SNB-75 CNS) of over 100 µM, a TGI (SR leukemia) of over 100 µM and a TGI (SW-620 colon) of over 100 µM. It also gave a TGI (T-47D breast) of over 100 µM, a TGI (TK-10 renal) of over 100 µM and a TGI (U251 CNS) of over 100 µM. For the same compound, the TGI (UACC-257 melanoma) was over 100 µM, the TGI (UACC-62 melanoma) was over 100 µM and the TGI (UO-31 renal) was over 100 µM.

Compound `CC(=O)N1C(Nc2cccc3nc(C)ccc23)CCN1c1ccccc1` (stereo not given) has a TGI (786-0 renal) of over 10 µM, a TGI (A549 NSCLC) of over 10 µM and a TGI (ACHN renal) of over 10 µM. For the same compound, the TGI (BT-549 breast) was over 10 µM, the TGI (CAKI-1 renal) was over 10 µM and the TGI (CCRF-CEM leukemia) was over 10 µM. It also gave a TGI (COLO 205 colon) of over 10 µM, a TGI (DU-145 prostate) of over 10 µM and a TGI (EKVX NSCLC) of over 10 µM. For the same compound, the TGI (HCC-2998 colon) was over 10 µM, the TGI (HCT-116 colon) was over 10 µM and the TGI (HCT-15 colon) was over 10 µM. The TGI (HL-60(TB) leukemia) was over 10 µM, the TGI (HOP-62 NSCLC) was over 10 µM and the TGI (HS 578T breast) was over 10 µM. For the same compound, the TGI (HT29 colon) was over 10 µM, the TGI (IGROV1 ovarian) was over 10 µM and the TGI (K-562 leukemia) was over 10 µM. For the same compound, the TGI (LOX IMVI melanoma) was over 10 µM, the TGI (M14 melanoma) was over 10 µM and the TGI (MALME-3M melanoma) was over 10 µM. It also gave a TGI (MCF7 breast) of over 10 µM, a TGI (MDA-MB-231 breast) of over 10 µM and a TGI (MDA-MB-435) of over 10 µM. The TGI (MDA-N) was over 10 µM, the TGI (MOLT-4 leukemia) was over 10 µM and the TGI (NCI-H226 lung) was over 10 µM. For the same compound, the TGI (NCI-H23 lung) was over 10 µM, the TGI (NCI-H460 lung) was over 10 µM and the TGI (NCI-H522 lung) was over 10 µM. It also gave a TGI (NCI/ADR-RES ovarian) of over 10 µM, a TGI (OVCAR-3 ovarian) of over 10 µM and a TGI (OVCAR-4 ovarian) of over 10 µM. The TGI (OVCAR-5 ovarian) was over 10 µM, the TGI (OVCAR-8 ovarian) was over 10 µM and the TGI (PC-3 prostate) was over 10 µM. For the same compound, the TGI (RPMI-8226 leukemia) was over 10 µM, the TGI (RXF 393 renal) was over 10 µM and the TGI (SF-268 CNS) was over 10 µM. For the same compound, the TGI (SF-295 CNS) was over 10 µM, the TGI (SF-539 CNS) was over 10 µM and the TGI (SK-MEL-2 melanoma) was over 10 µM. The TGI (SK-MEL-28 melanoma) was over 10 µM, the TGI (SK-MEL-5 melanoma) was over 10 µM and the TGI (SK-OV-3 ovarian) was over 10 µM. It also gave a TGI (SN12C renal) of over 10 µM, a TGI (SNB-19 CNS) of over 10 µM and a TGI (SNB-75 CNS) of over 10 µM. The TGI (SR leukemia) was over 10 µM, the TGI (SW-620 colon) was over 10 µM and the TGI (T-47D breast) was over 10 µM. For the same compound, the TGI (TK-10 renal) was over 10 µM, the TGI (UACC-257 melanoma) was over 10 µM and the TGI (UO-31 renal) was over 10 µM.
